Values of other authors, collected in US10821185B2, “Triglyceride otic formulations and uses thereof” (Otonomy, Inc., priority 2016, dated 2020).
Counter-ions that a name gives are not always drawn.

Columns and labels:
[1] = molecular target: D136A mutant VP2 receptor (Homo sapiens, UniProt P30518, D136A)
[2] = system: V2-R; conditions: infusion into the scala tympani
[3] = after topical application
[4] = system: mouse collagen-induced arthritis model; conditions: 30 mg/kg dose
[5] = system: LPS-induced human PBMC cells; conditions: read-out: IC50 for inhibiting TNF-α production
[6] = system: tinnitus; conditions: administered by IV
[7] = system: LPS-induced MonoMac-6 cells; conditions: read-out: IC50 for inhibiting TNF-α production
[8] = system: TNF-α; conditions: LPS-challenged mice
[9] = system: rat arthritis model; conditions: 30 mg/kg
[10] = systemic administration
[11] = systemically treated

For `Cc1ccccc1C(=O)Nc1ccc(C(=O)N2CCCC(N(C)C)c3ccccc32)cc1` (racemic) [OPC-31260, (±)-5-dimethylamino-1-(4-[2-methylbenzoylamino]benzoyl)-2,3,4,5-tetrahydro-1H-benzazepin hydrochloride], the “behaviour at constitutively activated D136A mutant VP2 receptor” value [1] is listed as “inverse agonist” and the “Meniere's disease symptoms” value [2] is listed as “marked reduction of Meniere's disease symptoms”.
In the case of `C=CC[C@@H]1/C=C(\C)C[C@H](C)C[C@H](OC)[C@H]2O[C@@](O)(C(=O)C(=O)N3CCCC[C@H]3C(=O)O[C@H](/C(C)=C/[C@@H]3CC[C@@H](O)[C@H](OC)C3)[C@H](C)[C@@H](O)CC1=O)[C@H](C)C[C@@H]2OC` (relative stereo) [tacrolimus, [3S-[3R*[E(1S*,3S*,4S*)], 4S*,5R*,8S*,9E,12R*,14R*,15S*,16R*,18S*,19S*,26aR*]]-5,6,8,11,12,13,14,15,16,17,18,19,24,25,26,26a-hexadecahydro-5,19-dihydroxy-3-[2-(4-hydroxy-3-methoxycyclohexyl)-1-methylethenyl]-14,16-dimethoxy-4,10,12,18-tetramethyl-8-(2-propenyl)-15,19-epoxy-3H-pyrido[2,1-39c][1,4]oxaazacyclotricosine-1,7,20,21(4H,23H)-tetrone monohydrate], the bioavailability [3] is listed as “less than 0.5%”.
For `Cc1ccc2nc(NCCN)c3ncc(C)n3c2c1` [BMS-345541], the severity of disease [4] is listed as “significantly reduced the severity of disease”.
In the case of `CC[C@H](C)[C@H](NC(=O)[C@H](CC(C)C)[C@H](C(C)C)N(O)C=O)C(=O)Nc1ccccn1` [GW3333], the IC50 [5] is given as 970 nM.
For `CCN(CC)CC(=O)Nc1c(C)cccc1C` [Lidocaine], the “sufferers in whom the noise associated with tinnitus is reduced or eliminated” value [6] is listed as 60-80%.
For `CC(C)C[C@@H](C(=O)N[C@@H](CCCN/C(N)=N/[N+](=O)[O-])C(=O)Nc1nccs1)[C@H](C(C)C)N(O)C=O` [Nitroarginine analog A], the IC50 [7] is listed as 34 nM.
For `O=C(Nc1cc(Cl)cc2c1[nH]c1cnccc12)c1cccnc1` [PS-1145], the “production of TNF-α” value [8] is given as “reduces the production of TNF-α”.
For `COc1cccc2nc(-c3cccs3)nc(NN3C(=O)C=C(C)C3=O)c12` [SPC-839], the paw edema [9] is given as “reduces paw edema”.
In the case of `CCOc1ccc2c(c1)C1(CCC(OCCN3CCOCC3)CC1)C(=O)N2S(=O)(=O)c1ccc(C(=O)NC(C)(C)C)cc1OC` (stereo not drawn) [SR-1211463, 1-(4-(N-tert-butylcarbamoyl)-2-methoxybenzenesulfonyl)-5-ethoxy-3-spiro-(4-(2-morpholinoethoxy)cyclohexane)indol-2-one fumarate], the “behaviour at constitutively activated D136A mutant VP2 receptor” value [1] is given as “inverse agonist”.
For adalimumab, the “patients developing injection site reactions (erythema and/or itching, hemorrhage, pain and/or swelling)” value [10] is given as 20%.
For etanercept, the “patients experiencing injection site reactions” value [11] is listed as “over one-third of patients”.
